Data taken from patent US12139487B2, “Compounds and uses thereof” (Foghorn Therapeutics Inc., priority 2022, dated 2024).

Key:
BRM = target: T1, BRM (Homo sapiens, UniProt P51531); experiment: ATPase catalytic activity assay (ADP-Glo), BRM; assay type: biochemical; conditions: Table 10; for Ratio (BRG1 IC50 (μM) divided by BRM IC50 (μM)): ATPase assay, selectivity BRG1/BRM; for IC50: ATPase catalytic activity assay (ADP-Glo)
T1 construct: made in house; host or cells: High Five insect cells
How it was run: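 ADP-Glo luminescence measures ADP produced by BRM ATPase (30 nM) during 1 h at room temperature. ATP is 400 μM, with 20 nM salmon sperm DNA as cofactor. Buffer: 20 mM Tris pH 8, 20 mM MgCl2, 50 mM NaCl, 0.1% Tween-20, 1 mM DTT.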

BRG-1 = target: T2, BRG-1 (Homo sapiens, UniProt P51532); experiment: ATPase catalytic activity assay (ADP-Glo), BRG-1; assay type: biochemical; conditions: Table 10, read-out: BRG1 IC50
T2 construct: made in house; host or cells: High Five insect cells
T2 sequence (P51532 whole entry): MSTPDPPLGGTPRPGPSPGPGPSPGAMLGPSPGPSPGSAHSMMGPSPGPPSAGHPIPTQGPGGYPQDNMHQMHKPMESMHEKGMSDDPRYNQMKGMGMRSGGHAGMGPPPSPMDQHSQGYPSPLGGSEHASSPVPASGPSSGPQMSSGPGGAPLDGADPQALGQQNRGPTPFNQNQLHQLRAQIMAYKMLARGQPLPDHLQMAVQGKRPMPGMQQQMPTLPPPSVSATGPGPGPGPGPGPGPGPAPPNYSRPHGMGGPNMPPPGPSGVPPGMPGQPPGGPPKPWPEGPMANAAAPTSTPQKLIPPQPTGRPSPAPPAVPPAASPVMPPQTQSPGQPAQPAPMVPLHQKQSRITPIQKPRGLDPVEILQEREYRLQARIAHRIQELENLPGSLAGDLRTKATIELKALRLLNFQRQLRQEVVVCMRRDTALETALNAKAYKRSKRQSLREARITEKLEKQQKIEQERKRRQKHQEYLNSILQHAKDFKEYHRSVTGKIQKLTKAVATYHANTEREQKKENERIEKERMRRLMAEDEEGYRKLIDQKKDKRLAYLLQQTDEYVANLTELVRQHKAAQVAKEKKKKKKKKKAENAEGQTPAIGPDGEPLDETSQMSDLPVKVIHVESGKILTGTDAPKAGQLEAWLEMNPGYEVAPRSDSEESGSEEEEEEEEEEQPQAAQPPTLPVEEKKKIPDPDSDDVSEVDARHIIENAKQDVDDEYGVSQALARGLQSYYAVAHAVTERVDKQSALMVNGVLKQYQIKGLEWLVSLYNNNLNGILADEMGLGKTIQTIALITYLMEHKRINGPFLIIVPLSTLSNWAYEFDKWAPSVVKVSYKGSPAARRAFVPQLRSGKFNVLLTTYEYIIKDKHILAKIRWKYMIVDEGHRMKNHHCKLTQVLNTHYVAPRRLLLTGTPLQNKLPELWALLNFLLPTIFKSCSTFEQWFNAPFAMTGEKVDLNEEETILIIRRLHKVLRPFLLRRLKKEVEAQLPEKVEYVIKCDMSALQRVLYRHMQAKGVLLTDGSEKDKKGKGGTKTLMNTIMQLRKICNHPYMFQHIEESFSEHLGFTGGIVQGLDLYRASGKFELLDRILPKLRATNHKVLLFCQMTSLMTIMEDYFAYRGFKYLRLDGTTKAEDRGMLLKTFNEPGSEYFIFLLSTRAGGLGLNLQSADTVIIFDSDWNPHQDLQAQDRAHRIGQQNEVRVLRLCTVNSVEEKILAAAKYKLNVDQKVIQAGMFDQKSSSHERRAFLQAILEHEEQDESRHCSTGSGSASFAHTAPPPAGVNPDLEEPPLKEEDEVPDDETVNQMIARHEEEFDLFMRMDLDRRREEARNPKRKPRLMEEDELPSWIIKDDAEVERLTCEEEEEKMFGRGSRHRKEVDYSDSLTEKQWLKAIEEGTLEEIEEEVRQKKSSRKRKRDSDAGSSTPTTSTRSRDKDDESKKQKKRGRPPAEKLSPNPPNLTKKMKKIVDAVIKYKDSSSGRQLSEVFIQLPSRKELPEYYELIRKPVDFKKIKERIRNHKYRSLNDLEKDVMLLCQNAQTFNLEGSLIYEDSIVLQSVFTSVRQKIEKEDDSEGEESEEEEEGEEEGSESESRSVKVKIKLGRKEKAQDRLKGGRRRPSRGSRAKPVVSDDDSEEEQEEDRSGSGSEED
How it was run: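 In this in vitro format, BRG-1 hydrolysis product ADP is detected via a two-step ADP-Glo workup (ATP removal, then ADP-to-ATP conversion with luciferase detection) followed by a luminescence read.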

T1 sequence (P51531 whole entry): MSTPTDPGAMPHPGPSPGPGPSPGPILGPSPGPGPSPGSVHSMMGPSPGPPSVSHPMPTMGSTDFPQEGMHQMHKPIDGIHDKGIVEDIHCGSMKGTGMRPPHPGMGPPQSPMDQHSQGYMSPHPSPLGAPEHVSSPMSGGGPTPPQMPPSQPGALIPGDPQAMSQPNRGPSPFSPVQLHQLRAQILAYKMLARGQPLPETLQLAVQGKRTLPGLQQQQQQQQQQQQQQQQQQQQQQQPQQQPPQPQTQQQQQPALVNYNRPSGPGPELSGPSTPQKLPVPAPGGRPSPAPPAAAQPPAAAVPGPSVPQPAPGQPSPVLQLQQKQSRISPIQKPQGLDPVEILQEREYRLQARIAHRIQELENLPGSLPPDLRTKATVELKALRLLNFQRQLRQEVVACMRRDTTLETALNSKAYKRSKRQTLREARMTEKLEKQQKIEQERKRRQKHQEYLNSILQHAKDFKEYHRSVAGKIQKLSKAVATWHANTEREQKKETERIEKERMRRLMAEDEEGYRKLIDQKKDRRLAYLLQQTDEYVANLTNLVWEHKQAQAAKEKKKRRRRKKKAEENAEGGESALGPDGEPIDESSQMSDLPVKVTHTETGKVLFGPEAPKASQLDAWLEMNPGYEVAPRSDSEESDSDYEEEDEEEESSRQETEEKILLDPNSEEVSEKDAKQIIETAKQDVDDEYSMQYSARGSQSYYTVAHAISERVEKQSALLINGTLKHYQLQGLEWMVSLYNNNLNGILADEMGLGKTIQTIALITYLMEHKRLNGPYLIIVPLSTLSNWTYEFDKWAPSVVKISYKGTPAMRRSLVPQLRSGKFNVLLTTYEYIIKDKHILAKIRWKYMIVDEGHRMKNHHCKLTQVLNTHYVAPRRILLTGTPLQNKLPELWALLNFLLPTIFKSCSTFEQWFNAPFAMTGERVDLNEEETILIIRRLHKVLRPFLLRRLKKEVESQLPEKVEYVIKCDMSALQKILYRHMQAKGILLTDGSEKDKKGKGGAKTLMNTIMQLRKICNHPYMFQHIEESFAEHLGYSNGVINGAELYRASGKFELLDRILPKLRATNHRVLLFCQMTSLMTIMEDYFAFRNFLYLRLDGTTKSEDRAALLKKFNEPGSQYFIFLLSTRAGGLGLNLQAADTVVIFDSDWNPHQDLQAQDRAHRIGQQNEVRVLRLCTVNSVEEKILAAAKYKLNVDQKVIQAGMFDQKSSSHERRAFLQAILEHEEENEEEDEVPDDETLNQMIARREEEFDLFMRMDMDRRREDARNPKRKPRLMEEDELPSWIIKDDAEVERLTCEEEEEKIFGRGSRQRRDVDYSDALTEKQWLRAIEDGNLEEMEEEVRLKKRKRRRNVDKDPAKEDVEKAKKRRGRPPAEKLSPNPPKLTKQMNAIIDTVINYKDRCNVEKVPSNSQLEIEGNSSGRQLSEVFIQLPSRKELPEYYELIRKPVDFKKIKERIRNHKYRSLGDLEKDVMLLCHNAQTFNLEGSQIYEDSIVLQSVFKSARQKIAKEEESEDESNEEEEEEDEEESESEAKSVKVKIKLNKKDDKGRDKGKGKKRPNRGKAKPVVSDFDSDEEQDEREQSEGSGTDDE

Ratio (BRG1 IC50 (μM) divided by BRM IC50 (μM)) (BRM)	IC50 (BRM)	IC50 (BRG-1)	Compound
17.11	7.6 nM	132 nM	O=C(NCc1cc2nc(-c3cncc(C4CC4)n3)ccc2cn1)c1cc(F)c2c(c1)S(=O)(=O)[C@@H](F)COC2 [Compound 238]
9.91	7.1 nM	70.5 nM	COc1nc(-c2ccc3cnc(CNC(=O)c4cc(F)c5c(c4)S(=O)(=O)[C@@H](F)CCO5)cc3n2)ccc1[C@H](F)CF [Compound 227]
11.77	8.9 nM	110 nM	C[C@H]1N(c2cnc3c(c2)OCCN3c2ccc3cnc(CNC(=O)c4cc(F)c5c(c4)S(=O)(=O)[C@@H](F)CCO5)cc3n2)CC1(F)F [Compound 269]
–	3.5 nM	40.7 nM	O=C(NCc1cc2nc(-c3cccc(C4CC4)n3)ccc2cn1)c1cc(F)c2c(c1)S(=O)(=O)[C@@H](F)CCOC2 [Compound 327]
43.60	24.9 nM	1080 nM	C#Cc1cc(C(=O)NCc2cc3nc(-c4cccc(N5C[C@@H](C)O[C@@H](C)C5)n4)ccc3cn2)cc2c1OCC[C@@H](F)S2(=O)=O [Compound 315]

The next lines start with the compound.

Compound	Ratio (BRG1 IC50 (μM) divided by BRM IC50 (μM)) (BRM)	IC50 (BRM)	IC50 (BRG-1)
COc1cnc2c(c1)CCCN2c1ccc2cnc(CNC(=O)c3cc(F)c4c(c3)S(=O)(=O)[C@@H](F)CCO4)cc2n1 [Compound 133]	18.45	4.5 nM	94.2 nM
O=C(NCc1cc2nc(N3CCOc4ccc([C@H]5C[C@@H]5F)nc43)ccc2cn1)c1cc(F)c2c(c1)S(=O)(=O)[C@@H](F)COC2 [Compound 132]	17.90	4.5 nM	77.2 nM
[2H]C([2H])([2H])Oc1nc(C(F)F)ccc1-c1ccc2cnc(CNC(=O)c3cc(F)c4c(c3)S(=O)(=O)[C@@H](F)COC4)cc2n1 [Compound 103]	12.05	3.6 nM	43.4 nM
[2H]C1([2H])OC[C@H](F)S(=O)(=O)c2cc(C(=O)NCc3cc4nc(N5CCOc6ccc(C(F)F)nc65)ccc4cn3)cc(F)c21 [Compound 140]	17.66	4.7 nM	83.1 nM
O=C(NCc1cc2nc(N3CCOc4cc(CC(F)F)cnc43)ccc2cn1)c1cc(F)c2c(c1)S(=O)(=O)[C@@H](F)CCO2 [Compound 145]	16.05	4.8 nM	77.2 nM
O=C(NCc1cc2nc(-c3ccc(C(F)F)c(C4CC4)n3)ccc2cn1)c1cc(F)c2c(c1)S(=O)(=O)[C@@H](F)CCO2 [Compound 60]	18.66	2.6 nM	53.1 nM
CCOCc1ccnc2c1OCCN2c1ccc2cnc(CNC(=O)c3cc(F)c4c(c3)S(=O)(=O)[C@@H](F)CCO4)cc2n1 [Compound 108]	16.69	3.9 nM	64.4 nM
COc1nc(C(C)(F)F)ccc1-c1ccc2cnc(CNC(=O)c3cc(F)c4c(c3)S(=O)(=O)[C@@H](F)COC4)cc2n1 [Compound 75]	26.00	2.8 nM	80.1 nM
[2H]C1([2H])Oc2c(F)cc(C(=O)NCc3cc4nc(N5CCOc6ccc(C(F)F)nc65)ccc4cn3)cc2S(=O)(=O)[C@@]([2H])(F)C1([2H])[2H] [Compound 203]	14.89	6.1 nM	92 nM
CO[C@H]1C[C@H]1c1cnc2c(c1)OCCN2c1ccc2cnc(CNC(=O)c3cc(F)c4c(c3)S(=O)(=O)[C@@H](F)CCO4)cc2n1 [Compound 45]	12.59	2.1 nM	25.8 nM
O=C(NCc1cc2nc(-c3ccc(OC(F)F)c(C4CC4)n3)ccc2cn1)c1cc(F)c2c(c1)S(=O)(=O)[C@@H](F)CCO2 [Compound 89]	28.75	3.2 nM	132 nM
O=C(NCc1cc2nc(N3CCOc4cc(F)cnc43)ccc2cn1)c1cc(F)c2c(c1)S(=O)(=O)[C@@H](F)CCO2 [Compound 102]	26.75	3.6 nM	95.4 nM
